The target in assay [1] is Protein-tyrosine kinase 6 (Homo sapiens, UniProt Q13882). Briefly: Selectivity interaction (ProQinase) EUB0000171b PTK6.
The test system of assay [2] is Hepatocyte growth factor receptor (Homo sapiens), P08581 [M1250T]. Briefly: (§1) Selectivity interaction (Ambit KINOMEscan and KiNATiv profiling in Jurkat cells) EUB0000090b MET. The class given is cell-based. The note with it: at 1 µM.
For assay [3], the system named is Hepatocyte growth factor receptor (Homo sapiens), P08581 [Y1235D]. The description is as §1. The note with it: at 1 µM. In kind it is cell-based.
The target in assay [4] is Hepatocyte growth factor receptor (Homo sapiens, UniProt P08581). The description is as §1. In kind it is cell-based. The note with it: at 1 µM.
Sequence of Hepatocyte growth factor receptor (P08581 whole entry): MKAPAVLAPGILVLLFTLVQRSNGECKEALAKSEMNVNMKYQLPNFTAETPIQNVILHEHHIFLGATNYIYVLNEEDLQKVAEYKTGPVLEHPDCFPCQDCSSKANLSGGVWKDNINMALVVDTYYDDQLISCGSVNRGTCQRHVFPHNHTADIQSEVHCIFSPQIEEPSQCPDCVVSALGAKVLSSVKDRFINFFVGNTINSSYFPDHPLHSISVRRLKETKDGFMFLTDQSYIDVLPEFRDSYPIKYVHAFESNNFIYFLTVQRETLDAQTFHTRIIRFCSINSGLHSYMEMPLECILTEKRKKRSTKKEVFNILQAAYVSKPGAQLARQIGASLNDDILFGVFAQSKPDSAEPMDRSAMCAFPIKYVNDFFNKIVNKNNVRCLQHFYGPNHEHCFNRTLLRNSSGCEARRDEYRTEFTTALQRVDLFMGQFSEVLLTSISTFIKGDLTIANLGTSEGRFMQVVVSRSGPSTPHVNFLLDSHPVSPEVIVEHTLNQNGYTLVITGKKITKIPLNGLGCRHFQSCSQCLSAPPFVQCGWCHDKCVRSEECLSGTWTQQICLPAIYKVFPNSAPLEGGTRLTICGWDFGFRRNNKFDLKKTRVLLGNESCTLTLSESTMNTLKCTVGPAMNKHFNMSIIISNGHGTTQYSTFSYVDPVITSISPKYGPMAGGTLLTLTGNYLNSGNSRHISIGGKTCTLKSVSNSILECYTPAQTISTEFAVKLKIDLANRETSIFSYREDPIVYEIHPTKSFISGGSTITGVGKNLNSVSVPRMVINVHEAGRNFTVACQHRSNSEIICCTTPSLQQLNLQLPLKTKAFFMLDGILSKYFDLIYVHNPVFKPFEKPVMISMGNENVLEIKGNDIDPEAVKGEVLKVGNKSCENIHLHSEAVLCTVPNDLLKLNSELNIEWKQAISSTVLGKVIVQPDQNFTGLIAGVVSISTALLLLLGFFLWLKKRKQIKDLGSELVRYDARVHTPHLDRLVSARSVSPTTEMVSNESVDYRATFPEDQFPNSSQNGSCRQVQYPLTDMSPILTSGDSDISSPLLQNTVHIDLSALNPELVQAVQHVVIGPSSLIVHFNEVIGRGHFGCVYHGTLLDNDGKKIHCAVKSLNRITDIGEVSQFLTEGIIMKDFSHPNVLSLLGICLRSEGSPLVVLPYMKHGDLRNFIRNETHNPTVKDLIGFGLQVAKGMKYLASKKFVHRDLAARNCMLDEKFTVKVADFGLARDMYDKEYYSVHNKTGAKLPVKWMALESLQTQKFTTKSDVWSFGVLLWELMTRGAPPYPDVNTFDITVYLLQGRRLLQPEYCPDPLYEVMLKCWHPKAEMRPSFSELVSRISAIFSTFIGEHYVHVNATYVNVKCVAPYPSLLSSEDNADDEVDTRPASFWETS
Assay [5] has as its target Ribosomal protein S6 kinase alpha-1 (Homo sapiens, UniProt Q15418). Briefly: Selectivity interaction (Millipore kinase profiler) EUB0000124b RPS6KA1. The note with it: at 10 µM.
Assay [6] deals with Tyrosine-protein kinase JAK2 (Homo sapiens, UniProt O60674). Briefly: Selectivity interaction (KinomeScan (DiscoverX)) EUB0000092b JAK2. The note with it: at 10 µM.
Sequence of Tyrosine-protein kinase JAK2 (O60674 whole entry): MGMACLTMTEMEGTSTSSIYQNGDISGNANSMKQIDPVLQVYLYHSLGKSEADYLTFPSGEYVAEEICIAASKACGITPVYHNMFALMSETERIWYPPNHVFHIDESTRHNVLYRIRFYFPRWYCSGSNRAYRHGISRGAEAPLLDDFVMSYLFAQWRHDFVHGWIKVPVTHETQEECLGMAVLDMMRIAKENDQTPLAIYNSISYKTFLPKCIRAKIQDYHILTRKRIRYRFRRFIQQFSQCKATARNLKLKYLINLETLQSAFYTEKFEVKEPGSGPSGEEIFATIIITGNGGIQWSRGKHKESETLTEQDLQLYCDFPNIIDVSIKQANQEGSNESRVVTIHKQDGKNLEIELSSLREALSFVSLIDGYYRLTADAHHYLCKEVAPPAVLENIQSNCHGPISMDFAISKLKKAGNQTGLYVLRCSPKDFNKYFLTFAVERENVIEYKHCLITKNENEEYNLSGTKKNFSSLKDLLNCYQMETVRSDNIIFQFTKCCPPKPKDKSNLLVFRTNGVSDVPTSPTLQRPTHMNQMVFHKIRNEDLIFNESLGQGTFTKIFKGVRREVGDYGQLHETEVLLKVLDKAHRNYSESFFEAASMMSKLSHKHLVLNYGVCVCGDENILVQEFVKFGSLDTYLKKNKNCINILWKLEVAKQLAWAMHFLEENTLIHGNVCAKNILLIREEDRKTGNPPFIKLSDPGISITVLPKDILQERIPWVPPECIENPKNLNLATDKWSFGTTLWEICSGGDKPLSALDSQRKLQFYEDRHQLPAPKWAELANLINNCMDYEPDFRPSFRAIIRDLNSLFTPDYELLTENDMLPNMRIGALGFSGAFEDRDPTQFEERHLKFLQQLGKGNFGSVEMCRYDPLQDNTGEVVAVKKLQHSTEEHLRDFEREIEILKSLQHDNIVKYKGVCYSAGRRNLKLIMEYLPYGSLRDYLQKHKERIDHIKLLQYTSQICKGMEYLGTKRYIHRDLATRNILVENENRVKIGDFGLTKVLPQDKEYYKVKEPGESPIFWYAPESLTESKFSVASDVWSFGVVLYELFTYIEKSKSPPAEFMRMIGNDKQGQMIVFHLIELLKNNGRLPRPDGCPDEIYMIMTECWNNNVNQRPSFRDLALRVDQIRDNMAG
Assay [7] concerns the target Phosphatidylinositol 4-phosphate 5-kinase type-1 alpha (Homo sapiens) (UniProt Q99755). Briefly: Selectivity interaction (KinomeScan (DiscoverX)) EUB0000092b PIP5K1A. The note with it: at 10 µM.
Assay [8] deals with Cyclin-dependent kinase 3 (Homo sapiens) (UniProt Q00526). Briefly: Selectivity interaction (KinomeScan (DiscoverX)) EUB0001049a CDK3. The note with it: at 1 µM.
Sequence of Cyclin-dependent kinase 3 (Homo sapiens) (Q00526 whole entry, looked up, the tested form may be a part): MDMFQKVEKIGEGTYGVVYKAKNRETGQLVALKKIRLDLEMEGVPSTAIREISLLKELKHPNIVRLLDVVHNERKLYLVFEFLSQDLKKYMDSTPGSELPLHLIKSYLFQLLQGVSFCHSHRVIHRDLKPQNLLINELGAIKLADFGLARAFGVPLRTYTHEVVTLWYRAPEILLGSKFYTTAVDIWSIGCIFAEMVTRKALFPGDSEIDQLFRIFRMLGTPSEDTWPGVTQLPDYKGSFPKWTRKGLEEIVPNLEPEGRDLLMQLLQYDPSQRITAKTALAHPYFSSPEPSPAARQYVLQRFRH
Assay [9] addresses WD repeat-containing protein 48 (Homo sapiens) (UniProt Q8TAF3). Briefly: Selectivity interaction (PWWP, WD40, and Tudor domain panel (DSLS measurements, literature)) EUB0000270b WDR48.
Assay [10] concerns the target Cyclin-dependent kinase 15 (Homo sapiens) (UniProt Q96Q40). Briefly: Selectivity interaction (KinomeScan (DiscoverX)) EUB0000666a CDK15. The note with it: at 10 µM.
Assay [11] has as its target T1, Calcium/calmodulin-dependent protein kinase type IV (Homo sapiens) (UniProt Q16566).
T1 sequence (whole entry): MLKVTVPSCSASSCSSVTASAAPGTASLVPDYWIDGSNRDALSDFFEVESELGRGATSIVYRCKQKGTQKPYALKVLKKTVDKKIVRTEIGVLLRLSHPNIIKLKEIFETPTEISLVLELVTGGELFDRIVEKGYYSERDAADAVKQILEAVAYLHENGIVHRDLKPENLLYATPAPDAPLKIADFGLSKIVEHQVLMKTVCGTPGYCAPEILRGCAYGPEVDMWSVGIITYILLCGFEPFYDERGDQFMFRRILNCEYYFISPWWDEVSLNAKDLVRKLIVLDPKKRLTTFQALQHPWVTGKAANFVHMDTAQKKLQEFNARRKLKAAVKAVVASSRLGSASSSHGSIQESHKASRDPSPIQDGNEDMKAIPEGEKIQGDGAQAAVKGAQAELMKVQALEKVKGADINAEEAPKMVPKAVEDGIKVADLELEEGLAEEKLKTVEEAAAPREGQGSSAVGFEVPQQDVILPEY
Briefly: Selectivity interaction (Kinase panel (Z-LYTE Assay)) EUB0001632a CAMK4. The note with it: at 10 µM.

Assay [12] addresses T2, cAMP-dependent protein kinase catalytic subunit PRKX (Homo sapiens) (UniProt P51817).
T2 sequence (whole entry): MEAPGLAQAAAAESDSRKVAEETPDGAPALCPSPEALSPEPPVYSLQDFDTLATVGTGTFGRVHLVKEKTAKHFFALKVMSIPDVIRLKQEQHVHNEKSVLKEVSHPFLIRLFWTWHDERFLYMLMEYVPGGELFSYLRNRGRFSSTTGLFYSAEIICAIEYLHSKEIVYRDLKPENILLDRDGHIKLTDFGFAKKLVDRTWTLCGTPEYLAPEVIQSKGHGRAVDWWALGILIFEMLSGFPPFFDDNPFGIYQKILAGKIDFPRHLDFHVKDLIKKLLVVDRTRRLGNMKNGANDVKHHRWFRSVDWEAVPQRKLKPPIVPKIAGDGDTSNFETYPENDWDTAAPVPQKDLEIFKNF
Briefly: Selectivity interaction (Kinase panel (Z-LYTE Assay)) EUB0001632a PRKX. The note with it: at 10 µM.

The target of assay [13] is Histone-lysine N-methyltransferase KMT5C (Homo sapiens) (UniProt Q86Y97). The note with it: at 1 µM.
Sequence of Histone-lysine N-methyltransferase KMT5C (Homo sapiens) (Q86Y97 whole entry, looked up): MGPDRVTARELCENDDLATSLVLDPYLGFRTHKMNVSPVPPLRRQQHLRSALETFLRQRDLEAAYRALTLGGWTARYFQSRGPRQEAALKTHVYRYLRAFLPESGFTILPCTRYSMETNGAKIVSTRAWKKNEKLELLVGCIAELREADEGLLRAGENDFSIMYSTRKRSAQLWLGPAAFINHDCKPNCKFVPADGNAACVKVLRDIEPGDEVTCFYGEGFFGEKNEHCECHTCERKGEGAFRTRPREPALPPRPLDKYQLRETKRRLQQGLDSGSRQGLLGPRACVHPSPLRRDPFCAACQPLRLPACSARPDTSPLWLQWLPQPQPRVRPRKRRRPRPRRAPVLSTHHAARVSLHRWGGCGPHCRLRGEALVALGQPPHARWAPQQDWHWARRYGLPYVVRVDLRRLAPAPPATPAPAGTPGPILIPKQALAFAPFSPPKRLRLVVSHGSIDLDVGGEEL
In assay [14] the target is MAP kinase-interacting serine/threonine-protein kinase 1 (Homo sapiens) (UniProt Q9BUB5). Briefly: Selectivity interaction (KinomeScan (DiscoverX)) EUB0000607a MKNK1. The note with it: at 10 µM.
Sequence of MAP kinase-interacting serine/threonine-protein kinase 1 (Homo sapiens) (Q9BUB5 whole entry, looked up): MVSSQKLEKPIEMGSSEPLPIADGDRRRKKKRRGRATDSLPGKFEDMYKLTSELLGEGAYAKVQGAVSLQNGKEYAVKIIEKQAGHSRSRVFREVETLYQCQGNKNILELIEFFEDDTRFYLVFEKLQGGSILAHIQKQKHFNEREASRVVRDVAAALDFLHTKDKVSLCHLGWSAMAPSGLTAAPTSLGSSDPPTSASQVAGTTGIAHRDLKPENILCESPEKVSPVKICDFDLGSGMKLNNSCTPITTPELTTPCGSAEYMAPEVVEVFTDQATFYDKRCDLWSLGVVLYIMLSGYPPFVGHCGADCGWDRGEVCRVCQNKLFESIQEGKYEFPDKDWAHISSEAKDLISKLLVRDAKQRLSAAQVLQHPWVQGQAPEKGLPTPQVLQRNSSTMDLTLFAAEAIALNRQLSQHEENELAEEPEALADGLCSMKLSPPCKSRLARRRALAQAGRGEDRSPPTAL
Assay [15] concerns the target Non-receptor tyrosine-protein kinase TYK2 (Homo sapiens, UniProt P29597). Briefly: Selectivity interaction (ActivX KiNativ screen (kinase selectivity in THP-1 cell lysates)) EUB0000639a TYK2. In kind it is subcellular. The note with it: lysate, at 0.04 µM.
Assay [16] deals with Eukaryotic translation initiation factor 2-alpha kinase 1 (Homo sapiens) (UniProt Q9BQI3). Briefly: Selectivity interaction (KinomeScan (DiscoverX)) EUB0000229b EIF2AK1. The note with it: at 10 µM.
Assay [17] addresses Histone acetyltransferase p300 (Homo sapiens) (UniProt Q09472). Briefly: Selectivity interaction (Human bromodomain panel (DSF assay)) EUB0000233b EP300. (In general: Differential scanning fluorimetry follows unfolding on heating by fluorescence.)

Molecules are shown by their SMILES. A value given as a limit tells only on which side of the number the result lay.

Sequence of Protein-tyrosine kinase 6 (Q13882 whole entry, looked up): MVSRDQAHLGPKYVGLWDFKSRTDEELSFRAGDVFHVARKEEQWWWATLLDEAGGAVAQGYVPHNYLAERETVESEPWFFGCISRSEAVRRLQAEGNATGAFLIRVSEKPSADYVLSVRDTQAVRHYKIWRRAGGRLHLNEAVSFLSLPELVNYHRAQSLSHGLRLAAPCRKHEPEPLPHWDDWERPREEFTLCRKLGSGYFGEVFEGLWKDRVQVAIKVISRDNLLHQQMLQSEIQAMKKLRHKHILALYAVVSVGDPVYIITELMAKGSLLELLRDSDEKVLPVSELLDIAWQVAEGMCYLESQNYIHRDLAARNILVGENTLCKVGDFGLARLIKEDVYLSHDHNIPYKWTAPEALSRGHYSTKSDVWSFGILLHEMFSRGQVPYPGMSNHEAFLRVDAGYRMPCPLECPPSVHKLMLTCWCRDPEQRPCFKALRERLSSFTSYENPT
Sequence of Phosphatidylinositol 4-phosphate 5-kinase type-1 alpha (Homo sapiens) (Q99755 whole entry): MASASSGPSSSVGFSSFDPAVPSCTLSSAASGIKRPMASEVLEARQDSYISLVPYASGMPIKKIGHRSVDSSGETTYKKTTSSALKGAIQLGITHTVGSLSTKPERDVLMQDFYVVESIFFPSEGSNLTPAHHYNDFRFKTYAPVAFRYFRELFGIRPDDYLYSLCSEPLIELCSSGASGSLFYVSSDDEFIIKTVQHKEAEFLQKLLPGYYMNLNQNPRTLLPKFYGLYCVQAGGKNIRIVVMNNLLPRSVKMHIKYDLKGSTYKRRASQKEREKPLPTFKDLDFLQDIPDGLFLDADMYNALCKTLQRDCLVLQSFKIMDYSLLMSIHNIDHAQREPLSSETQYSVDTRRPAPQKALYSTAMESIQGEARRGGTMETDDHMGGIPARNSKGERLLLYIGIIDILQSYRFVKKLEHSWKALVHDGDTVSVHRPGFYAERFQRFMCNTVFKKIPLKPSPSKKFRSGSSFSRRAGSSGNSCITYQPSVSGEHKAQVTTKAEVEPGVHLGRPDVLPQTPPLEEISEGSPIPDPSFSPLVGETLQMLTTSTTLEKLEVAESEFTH

Consider `C=CC(=O)Nc1cccc(C(=O)Nc2ccc(Nc3cc(-c4[nH]c(SC)nc4C)ccn3)cc2)c1`, for which the results for the % of control in assay [1] (at 1 µM) and in assay [1] (at 5 µM) were 101% and 105%, respectively.
`CN(C)C/C=C/C(=O)Nc1ccc(C(=O)N2CCCC(Nc3ncc(Cl)c(-c4c[nH]c5ccccc45)n3)C2)cc1` (stereo not drawn): the % of control in [2] is 69%; in [3] it was 69%; in assay [4], 84%.
On to `CC(=O)Nc1cccc(-n2c(=O)n(C3CC3)c(=O)c3c(Nc4ccc(I)cc4F)n(C)c(=O)c(C)c32)c1`, for which the % of control in [5] was found to be 116%.
As to `CCC(=O)N1CCN(c2ccc(-n3c(=O)ccc4cnc5ccc(-c6cnc7ccccc7c6)cc5c43)cc2C(F)(F)F)CC1`, the % of control in assay [6] was determined as 65%; in assay [7], 89%.
With `COc1cc(Nc2nc(C)cc(-c3cnn4nc(OC)ccc34)n2)cc(C(F)(F)F)c1`, in [8], the % of control was 90%.
For `Cc1cc(CN)cc(C)c1-c1ncn(C)c1-c1cncn1C`, the dTagg in [9] came out at 0.1 K.
Turning to `O=C(NOC[C@H](O)CO)c1ccc(F)c(F)c1Nc1ccc(I)cc1F`, the % of control in assay [10] was found to be 78%.
Take `Cn1cc(-n2cnc3c(NCc4nc5cc(Cl)c(Cl)cc5[nH]4)nc(N4CCOCC4)nc32)cn1`: the results for the % of control in assay [11] and in assay [12] were -4.99% and 2.85%, respectively.
With `CNCCN1CCC(c2cc(CN(C)C(=O)c3cccc(Oc4ccccc4)c3)ccn2)CC1`, in assay [13], the % activity was over 90%.
In the case of `CNC(=O)Nc1ccc(-c2nc(N3CC4CCC(C3)O4)c3cnn(C4CCC5(CC4)OCCO5)c3n2)cc1`, the % of control in assay [14] was determined as 100%.
On to `CC[C@@H]1[C@H](F)C(=O)N[C@@H]1COc1nccc2cc(C(N)=O)c(OC)cc12` [ZIMLOVISERTIB], for which the % of inhibition in [15] turned out to be 6.4%.
Compound `COc1cc(N(C)c2ccnc3ccc(C(F)(F)F)cc23)cc(OC)c1OC` had a % binding in assay [16] of 74%.
The compound `CN(C)CCCOc1ccc(-c2cc(NCCCn3cccn3)nc(S(C)(=O)=O)n2)cc1` showed a dTM in [17] of under 2 K.

Values taken from ChEMBL document CHEMBL5465560, “Selectivity Literature for EUbOPEN Chemogenomic Library” (2024).
